Source: the supplement of paper PMC10307832

Columns and labels:
Assay in all cases: relative viability (nuclei count vs DMSO), 5 days (fraction); higher = more cells survive
NCI-H1666 = test system: NCI-H1666
How it was run: (§1)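 Relative viability is defined as nuclei in treated wells over nuclei in vehicle wells. Duplicate plates were run and medians reported. Lung cancer cell lines in 1536-well plates were dosed by pin tool one day after seeding, with one drug or with a fixed anchor-drug dose plus five library-drug doses (not always all listed) in √10 steps, and nuclei were counted after 5 days.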

H3255 = test system: H3255
How it was run: as §1

NCI-H1755 = test system: NCI-H1755
How it was run: as §1

NCI-H1650 = test system: NCI-H1650
How it was run: as §1

A-427 = test system: A-427
How it was run: as §1

ChaGo-K-1 = test system: ChaGo-K-1
How it was run: as §1

NCI-H838 = test system: NCI-H838
How it was run: as §1

NCI-H2228 = test system: NCI-H2228
How it was run: as §1

SW 1573 = test system: SW 1573
How it was run: as §1

NCI-H1944 = test system: NCI-H1944
How it was run: as §1

NCI-H520 = test system: NCI-H520
How it was run: as §1

NCI-H2347 = test system: NCI-H2347
How it was run: as §1

NCI-H460 = test system: NCI-H460
How it was run: as §1

NCI-H2085 = test system: NCI-H2085
How it was run: as §1

NCI-H1355 = test system: NCI-H1355
How it was run: as §1

NCI-H441 = test system: NCI-H441
How it was run: as §1

NCI-H322M = test system: NCI-H322M
How it was run: as §1

EKVX = test system: EKVX
How it was run: as §1

NCI-H3122 = test system: NCI-H3122
How it was run: as §1

LK-2 = test system: LK-2
How it was run: as §1

NCI-H650 = test system: NCI-H650
How it was run: as §1

NCI-H358 = test system: NCI-H358
How it was run: as §1

NCI-H596 = test system: NCI-H596
How it was run: as §1

In the case of `Cc1cnc(-c2cnc(NCCNc3ccc(C#N)cn3)nc2-c2ccc(Cl)cc2Cl)[nH]1` + CC(=O)Nc1cccc(-n2c(=O)n(C3CC3)c(=O)c3c(Nc4ccc(I)cc4F)n(C)c(=O)c(C)c32)c1 [Trametinib] (partner 0.02 µM), the relative viability (NCI-H1666; first compound 0.08 µM) is reported as 0.864, the relative viability (NCI-H1666; first compound 0.253 µM) is reported as 0.797 and the relative viability (NCI-H1666; first compound 0.8 µM) is reported as 0.957. It also gave a relative viability (NCI-H1666; first compound 2.53 µM) of 0.821, a relative viability (H3255; first compound 0.08 µM) of 0.794 and a relative viability (H3255; first compound 0.253 µM) of 0.583. For the same molecule, the relative viability (H3255; first compound 0.8 µM) was 0.663, the relative viability (H3255; first compound 2.53 µM) was 0.668 and the relative viability (NCI-H1755; first compound 0.08 µM) was 0.865. The relative viability (NCI-H1755; first compound 0.253 µM) was 0.755, the relative viability (NCI-H1755; first compound 0.8 µM) was 0.771 and the relative viability (NCI-H1755; first compound 2.53 µM) was 0.771. The relative viability (NCI-H1650; first compound 0.08 µM) was 0.659, the relative viability (NCI-H1650; first compound 0.253 µM) was 0.47 and the relative viability (NCI-H1650; first compound 0.8 µM) was 0.365. It also gave a relative viability (NCI-H1650; first compound 2.53 µM) of 0.469, a relative viability (A-427; first compound 0.08 µM) of 0.814 and a relative viability (A-427; first compound 0.253 µM) of 0.792. The relative viability (A-427; first compound 0.8 µM) was 0.827, the relative viability (A-427; first compound 2.53 µM) was 0.837 and the relative viability (ChaGo-K-1; first compound 0.08 µM) was 0.891. It also gave a relative viability (ChaGo-K-1; first compound 0.253 µM) of 0.761, a relative viability (ChaGo-K-1; first compound 0.8 µM) of 0.844 and a relative viability (ChaGo-K-1; first compound 2.53 µM) of 0.824. The relative viability (NCI-H838; first compound 0.08 µM) was 0.577, the relative viability (NCI-H838; first compound 0.253 µM) was 0.499 and the relative viability (NCI-H838; first compound 0.8 µM) was 0.591. It also gave a relative viability (NCI-H838; first compound 2.53 µM) of 0.685, a relative viability (NCI-H2228; first compound 0.08 µM) of 0.526 and a relative viability (NCI-H2228; first compound 0.253 µM) of 0.511. It also gave a relative viability (NCI-H2228; first compound 0.8 µM) of 0.506, a relative viability (NCI-H2228; first compound 2.53 µM) of 0.42 and a relative viability (SW 1573; first compound 0.08 µM) of 0.718. For the same molecule, the relative viability (SW 1573; first compound 0.253 µM) was 0.537, the relative viability (SW 1573; first compound 0.8 µM) was 0.575 and the relative viability (SW 1573; first compound 2.53 µM) was 0.337. It also gave a relative viability (NCI-H1944; first compound 0.08 µM) of 0.423, a relative viability (NCI-H1944; first compound 0.8 µM) of 0.463 and a relative viability (NCI-H1944; first compound 2.53 µM) of 0.371. It also gave a relative viability (NCI-H520; first compound 0.08 µM) of 0.781, a relative viability (NCI-H520; first compound 0.253 µM) of 0.614 and a relative viability (NCI-H520; first compound 0.8 µM) of 0.788. For the same molecule, the relative viability (NCI-H520; first compound 2.53 µM) was 0.706, the relative viability (NCI-H2347; first compound 0.08 µM) was 0.296 and the relative viability (NCI-H2347; first compound 0.253 µM) was 0.272. For the same molecule, the relative viability (NCI-H2347; first compound 0.8 µM) was 0.297, the relative viability (NCI-H2347; first compound 2.53 µM) was 0.287 and the relative viability (NCI-H460; first compound 0.08 µM) was 0.225. The relative viability (NCI-H460; first compound 0.253 µM) was 0.121, the relative viability (NCI-H460; first compound 0.8 µM) was 0.107 and the relative viability (NCI-H460; first compound 2.53 µM) was 0.195. For the same molecule, the relative viability (NCI-H2085; first compound 0.08 µM) was 0.596, the relative viability (NCI-H2085; first compound 0.253 µM) was 0.524 and the relative viability (NCI-H2085; first compound 0.8 µM) was 0.52. The relative viability (NCI-H2085; first compound 2.53 µM) was 0.604, the relative viability (NCI-H1355; first compound 0.08 µM) was 0.396 and the relative viability (NCI-H1355; first compound 0.253 µM) was 0.384. The relative viability (NCI-H1355; first compound 0.8 µM) was 0.41, the relative viability (NCI-H1355; first compound 2.53 µM) was 0.409 and the relative viability (NCI-H441; first compound 0.08 µM) was 0.561. It also gave a relative viability (NCI-H441; first compound 0.8 µM) of 0.443, a relative viability (NCI-H441; first compound 2.53 µM) of 0.372 and a relative viability (NCI-H322M; first compound 0.08 µM) of 0.563. For the same molecule, the relative viability (NCI-H322M; first compound 0.253 µM) was 0.558, the relative viability (NCI-H322M; first compound 0.8 µM) was 0.468 and the relative viability (NCI-H322M; first compound 2.53 µM) was 0.516. The relative viability (EKVX; first compound 0.08 µM) was 0.391, the relative viability (EKVX; first compound 0.253 µM) was 0.328 and the relative viability (EKVX; first compound 0.8 µM) was 0.256. It also gave a relative viability (EKVX; first compound 2.53 µM) of 0.358, a relative viability (NCI-H3122; first compound 0.08 µM) of 0.262 and a relative viability (NCI-H3122; first compound 0.8 µM) of 0.246. The relative viability (NCI-H3122; first compound 2.53 µM) was 0.233, the relative viability (LK-2; first compound 0.08 µM) was 0.834 and the relative viability (LK-2; first compound 0.253 µM) was 0.833. It also gave a relative viability (LK-2; first compound 0.8 µM) of 0.841, a relative viability (LK-2; first compound 2.53 µM) of 0.955 and a relative viability (NCI-H650; first compound 0.08 µM) of 1.17. The relative viability (NCI-H650; first compound 0.253 µM) was 0.989, the relative viability (NCI-H650; first compound 0.8 µM) was 1.29 and the relative viability (NCI-H650; first compound 2.53 µM) was 0.988. It also gave a relative viability (NCI-H358; first compound 0.08 µM) of 0.147, a relative viability (NCI-H358; first compound 0.253 µM) of 0.143 and a relative viability (NCI-H358; first compound 0.8 µM) of 0.136. For the same molecule, the relative viability (NCI-H358; first compound 2.53 µM) was 0.13, the relative viability (NCI-H596; first compound 0.08 µM) was 0.877 and the relative viability (NCI-H596; first compound 0.253 µM) was 0.704. For the same molecule, the relative viability (NCI-H596; first compound 0.8 µM) was 0.782 and the relative viability (NCI-H596; first compound 2.53 µM) was 0.91.
